Measurements taken from publication PMC6988263 (Parasites & Vectors, 2020).

Molecular target: T1, rHc-HRG-2 (recombinant Hc-HRG-2) (Haemonchus contortus, UniProt A0A7I5E8W1)
T1 construct: vector His tag), expressed in E. coli, Ni-NTA purified
Test: GSH-CDNB conjugation, absorbance at […] nm
Type: biochemical
Conditions: 1 mM GSH, 0.1 M potassium phosphate pH 6.5, 10 μM protein

T1 sequence (A0A7I5E8W1 entry or part of it): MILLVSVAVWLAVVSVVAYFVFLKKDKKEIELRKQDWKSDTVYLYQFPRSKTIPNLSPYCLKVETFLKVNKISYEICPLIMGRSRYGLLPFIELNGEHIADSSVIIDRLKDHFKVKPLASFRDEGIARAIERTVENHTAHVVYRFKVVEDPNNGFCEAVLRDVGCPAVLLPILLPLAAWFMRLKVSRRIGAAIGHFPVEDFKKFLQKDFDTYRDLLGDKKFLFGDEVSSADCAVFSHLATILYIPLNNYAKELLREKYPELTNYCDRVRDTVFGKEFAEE

O=[N+]([O-])c1ccc(Cl)c([N+](=O)[O-])c1 [CDNB, 1-chloro-2,4-dinitrobenzene]
Km: 508 ± 34.1 µM
